The text below walks through data of patent US11725000B2, “Apoptosis inhibitors” (National Institute of Biological Sciences, Beijing, priority 2017, dated 2023).

By EC50 is commonly meant the concentration needed to bring the measured effect to its halfway point.

Some results are limits rather than exact numbers.

For one experiment, the system named is U2OS_Bim cells. The experiment in a line: Apoptosis inhibition assay (Bim-induced apoptosis, cell viability by ATP level). The following applies: U2OS_Bim cells; estimated (*Est.) / preliminary results; numbering of Tables 4a/4b; read-out: EC50. It is filed as cell-based. The method in brief: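 Apoptosis was triggered by doxycycline (0.1 μg/mL) induction of Bim, one hour after compound addition to U2OS_Bim cells. Survival was measured after 24 h from cellular ATP (CellTiter-Glo), relative to DMSO, with zVAD at 20 μM as rescue control. Data are duplicate means, some estimated from preliminary results.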
For the compound `Cc1cc(-c2cc(F)c(=O)n(Cc3ccc4c(c3)OCO4)c2)nc(S(=O)(=O)CCC(OCc2ccccc2F)C2CCCCC2)n1` (centres unmarked) [Compound 397], the EC50 was 1 to 1000 nM.
Consider `Cc1cc(-c2cc(F)c(=O)n(Cc3ccc4c(c3)OCO4)c2)nc(S(=O)(=O)CCC(OCc2ccccc2F)c2ccc3ccn(C)c3c2)n1` (centres unmarked) [Compound 392], for which the EC50 was 1 to 1000 nM.
With `Cc1cc(-c2cc(F)c(=O)n(Cc3ccnc(CCO)c3)c2)nc(S(=O)(=O)CCC(OCc2ccccc2F)c2ccccc2)n1` (centres unmarked) [Compound 360], the EC50 is 1 to 1000 nM.

Still in this experiment, the particulars now being: U2OS_Bim cells; estimated based on preliminary results; numbering of Tables 4a/4b; read-out: EC50.
As to `COc1ccc(Cn2cc(-c3cc(C(F)F)nc([S+](C)[O-])n3)ccc2=O)cc1OC` (centres unmarked) [Compound 202, 5-(6-(difluoromethyl)-2-(methylsulfinyl)pyrimidin-4-yl)-1-(3,4-dimethoxybenzyl)pyridin-2 (1H)-one], the EC50 was below 10000 nM.
Take `COc1ccc(Cn2cc(-c3cc(C4=CCC=C4)nc([S+](C)[O-])n3)ccc2=O)cc1OC` (centres unmarked) [Compound 209]: the 50% effective concentration (EC50) was below 10000 nM.
The same measure, in the same setting: with `C[S+]([O-])c1nc(-c2ccc(=O)n(Cc3ccc4c(c3)OCO4)c2)cc(C(F)(F)F)n1` (centres unmarked) [Compound 223] the figure was below 10000 nM.
Still for that read-out and setting: for `COc1ccc(Cn2cc(-c3cc(C(F)F)nc(S(=O)(=O)CCCO)n3)ccc2=O)cc1OC` [Compound 273, 5-(6-(difluoromethyl)-2-((3-hydroxypropyl)sulfonyl)pyrimidin-4-yl)-1-(3,4-dimethoxybenzyl)pyridin-2 (1H)-one] the value was 1000 to 10000 nM; for `CS(=O)(=O)c1nc(-c2ccc(=O)n(CC3=Cc4ccccc4C3)c2)cc(C(F)(F)F)n1` [Compound 254], below 10000 nM; for `C[S+]([O-])c1nc(-c2ccc(=O)n(Cc3ccc4ccncc4c3)c2)cc(C(F)(F)F)n1` (centres unmarked) [Compound 251], below 10000 nM.
As to `CCc1ccc(Cn2cc(-c3cc(C(F)(F)F)nc(S(C)(=O)=O)n3)ccc2=O)cc1OC` [Compound 264], the concentration giving a half-maximal response (EC50) was below 10000 nM.
Still for that read-out and setting: with `CS(=O)(=O)c1nc(-c2ccc(=O)n(Cc3ccc4ncccc4c3)c2)cc(C(F)(F)F)n1` [Compound 246] the figure was below 10000 nM.

The experiment is the same for the next values; noted with them: U2OS_Bim cells; means of duplicates; numbering of Tables 4a/4b; read-out: EC50.
For `COc1cc(Cn2cc(-c3cc(C(F)F)nc(SC)n3)ccc2=O)cc(F)c1OC` [Compound 171, 5-(6-(difluoromethyl)-2-(methylthio)pyrimidin-4-yl)-1-(3-fluoro-4,5-dimethoxybenzyl)pyridin-2 (1H)-one], the half-maximal effective concentration (EC50) is 1 to 1000 nM.
Still for that read-out and setting: for `COc1ccc(Cn2cc(-c3cc(-c4ccccc4F)nc(S(=O)(=O)CCC(OCc4ccccc4)c4ccccc4)n3)ccc2=O)cc1OC` (centres unmarked) [Compound 298, 5-(2-((3-(benzyloxy)-3-phenylpropyl)sulfonyl)-6-(2-fluorophenyl)pyrimidin-4-yl)-1-(3,4-dimethoxybenzyl)pyridin-2 (1H)-one] the value was below 100000 nM; for `Cc1cc(-c2cc(F)c(=O)n(Cc3ccc4c(c3)OCO4)c2)nc(S(=O)(=O)CCC(OCc2ccc(F)cc2F)c2ccccc2)n1` (centres unmarked) [Compound 317, 1-(benzo[d][1,3]dioxol-5-ylmethyl)-5-(2-((3-((2,4-difluorobenzyl)oxy)-3-phenylpropyl)sulfonyl)-6-methylpyrimidin-4-yl)-3-fluoropyridin-2 (1H)-one], 1 to 1000 nM.
Still for that read-out and setting: for `COc1ccc(Cn2cc(-c3cc(C(F)F)nc(S(=O)(=O)CCCNC(C)=O)n3)ccc2=O)cc1OC` [Compound 185, N-(3-((4-(difluoromethyl)-6-(1-(3,4-dimethoxybenzyl)-6-oxo-1,6-dihydropyridin-3-yl)pyrimidin-2-yl)sulfonyl)propyl)acetamide] the value was 1000 to 10000 nM; for `O=S(=O)(CCC(Cl)c1ccccc1)c1nc(-c2cccs2)cc(C(F)(F)F)n1` (centres unmarked) [Compound 292, 2-((3-chloro-3-phenylpropyl)sulfonyl)-4-(thiophen-2-yl)-6-(trifluoromethyl)pyrimidine], 1000 to 10000 nM.
Still for that read-out and setting: with `C[S+]([O-])c1nc(-c2ccc(C(=O)O)cc2)cc(C(F)(F)F)n1` (centres unmarked) [Compound 65, 4-(2-(methylsulfinyl)-6-(trifluoromethyl)pyrimidin-4-yl)benzoic acid] the figure was below 100000 nM; with `COc1ncccc1-c1cc(C(F)(F)F)nc(S(C)(=O)=O)n1` [Compound 78, 4-(2-methoxypyridin-3-yl)-2-(methylsulfonyl)-6-(trifluoromethyl)pyrimidine], below 100000 nM; with `COc1ccc(Cn2cc(-c3cc(C(F)F)nc(S(=O)(=O)CCC(OCc4ccccc4F)c4ccccc4)n3)ccc2=O)cc1F` (centres unmarked) [Compound 284, 5-(6-(difluoromethyl)-2-(3-(2-fluorobenzyloxy)-3-phenylpropylsulfonyl)pyrimidin-4-yl)-1-(3-fluoro-4-methoxybenzyl)pyridin-2 (1H)-one], 1 to 1000 nM.
Turning to `CS(=O)(=O)c1nc(-c2ccn(Cc3ccc(Cl)cc3)c2)cc(C(F)(F)F)n1` [Compound 95, 4-(1-(4-chlorobenzyl)-1H-pyrrol-3-yl)-2-(methylsulfonyl)-6-(trifluoromethyl)pyrimidine], the concentration for a half-maximal effect (EC50) is below 100000 nM.
The same measure, in the same setting: with `COc1ccc(Cn2cc(-c3cc(=O)n(C)c(S(C)(=O)=O)n3)ccc2=O)cc1OC` [Compound 275, 6-(1-(3,4-dimethoxybenzyl)-6-oxo-1,6-dihydropyridin-3-yl)-3-methyl-2-(methylsulfonyl)pyrimidin-4 (3H)-one] the figure was below 100000 nM; with `COc1ccc(Cn2ccc(-c3cc(C(F)(F)F)nc([S+](C)[O-])n3)c2)cc1` (centres unmarked) [Compound 92, 4-(1-(4-methoxybenzyl)-1H-pyrrol-3-yl)-2-(methylsulfinyl)-6-(trifluoromethyl)pyrimidine], below 100000 nM.
On to `COc1cccc(Cn2ccc(-c3cc(C(F)(F)F)nc(S(C)(=O)=O)n3)c2)c1` [Compound 89, 4-(1-(3-methoxybenzyl)-1H-pyrrol-3-yl)-2-(methylsulfonyl)-6-(trifluoromethyl)pyrimidine], for which the EC50 was below 100000 nM.
Same read-out and setting: for `CS(=O)(=O)c1nc(-c2ccc(C#N)cc2)cc(C(F)(F)F)n1` [Compound 57] the value was below 100000 nM.
As to `COc1ccc(Cn2cc(-c3cc(C(F)F)nc(S(C)(=O)=O)n3)ccc2=O)cc1OC` [Compound 160, 5-(6-(difluoromethyl)-2-(methylsulfonyl)pyrimidin-4-yl)-1-(3,4-dimethoxybenzyl)pyridin-2 (1H)-one], the EC50 was in the range of 1 to 1000 nM.
On to `COc1ccc(Cn2cccc2-c2cc(C(F)(F)F)nc([S+](C)[O-])n2)cc1OC` (centres unmarked) [Compound 86, 4-(1-(3,4-dimethoxybenzyl)-1H-pyrrol-2-yl)-2-(methylsulfinyl)-6-(trifluoromethyl)pyrimidine], for which the EC50 was below 100000 nM.
The same measure, in the same setting: for `COc1cc(Cn2cc(-c3cc(C(F)(F)F)nc(S(C)(=O)=O)n3)ccc2=O)ccn1` [Compound 135, 1-((2-methoxypyridin-4-yl)methyl)-5-(2-(methylsulfonyl)-6-(trifluoromethyl)pyrimidin-4-yl)pyridin-2 (1H)-one] the value was 1 to 1000 nM.
Same read-out and setting: with `COc1ccc(Cn2cc(-c3cc(C(F)(F)F)nc(S(=O)(=O)CCCC(=O)N4CCCCC4)n3)ccc2=O)cc1OC` [Compound 155, 1-(3,4-dimethoxybenzyl)-5-(2-((4-oxo-4-(piperidin-1-yl)butyl)sulfonyl)-6-(trifluoromethyl)pyrimidin-4-yl)pyridin-2 (1H)-one] the figure was 1 to 1000 nM; with `C#CCOc1cccc(Cn2cc(-c3cc(C(F)(F)F)nc(S(C)(=O)=O)n3)ccc2=O)c1` [Compound 115, 5-(2-(methylsulfonyl)-6-(trifluoromethyl)pyrimidin-4-yl)-1-(3-(prop-2-yn-1-yloxy)benzyl) pyridin-2 (1H)-one], 1 to 1000 nM.
